In patent US10167262B2, “Herbicidal substituted 3-arylpyrazoles” (FMC CORPORATION, priority 2014, dated 2019):

Assays:
Assay in all cases: Test E pre-/postemergence greenhouse test, plant response rating 0-100
Assay type in all cases: in vivo
[1] = tested on: ragweed (common ragweed, Ambrosia elatior); conditions: Preemergence, scale 0 to 100
Summary of the method: (§1)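 Greenhouse response on a 0 (none) to 100 (complete control) scale, assessed 14 to 21 days post-treatment. Soil-applied preemergence on silt loam; foliar postemergence on plants 2–18 cm high.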

[2] = tested on: surinam grass (Brachiaria decumbens); conditions: Preemergence, scale 0 to 100
Summary of the method: as §1

[3] = tested on: velvetleaf (Abutilon theophrasti); conditions: Preemergence, scale 0 to 100
Summary of the method: as §1

[4] = tested on: smartweed (ladysthumb smartweed, Polygonum persicaria); conditions: Postemergence, scale 0 to 100
kochia (Kochia scoparia) = conditions: Preemergence, scale 0 to 100
Summary of the method: as §1

[5] = tested on: cocklebur (common cocklebur, Xanthium strumarium); conditions: Preemergence, scale 0 to 100
Summary of the method: as §1

[6] = tested on: large (Lg) crabgrass (Digitaria sanguinalis); conditions: Preemergence, scale 0 to 100
[7] = tested on: smartweed (ladysthumb smartweed, Polygonum persicaria); conditions: scale 0 to 100; for Smartweed plant response rating: Preemergence

| SMILES | Ragweed plant response rating ([1]; 31 g ai/ha) | Ragweed plant response rating ([1]; 250 g ai/ha) | Ragweed plant response rating ([1]; 500 g ai/ha) | Surinam Grass plant response rating ([2]; 31 g ai/ha) | Surinam Grass plant response rating ([2]; 62 g ai/ha) | Surinam Grass plant response rating ([2]; 125 g ai/ha) | Surinam Grass plant response rating ([2]; 250 g ai/ha) | Surinam Grass plant response rating ([2]; 500 g ai/ha) | Velvetleaf plant response rating ([3]; 31 g ai/ha) | Velvetleaf plant response rating ([3]; 62 g ai/ha) | Velvetleaf plant response rating ([3]; 125 g ai/ha) | Velvetleaf plant response rating ([3]; 250 g ai/ha) | Velvetleaf plant response rating ([3]; 500 g ai/ha) | Plant response rating, Smartweed ([4]; 31 g ai/ha) | Plant response rating, Smartweed ([4]; 62 g ai/ha) | Plant response rating, Smartweed ([4]; 125 g ai/ha) | Plant response rating, Smartweed ([4]; 250 g ai/ha) | Kochia plant response rating (kochia (Kochia scoparia); 31 g ai/ha) | Kochia plant response rating (kochia (Kochia scoparia); 62 g ai/ha) | Kochia plant response rating (kochia (Kochia scoparia); 125 g ai/ha) | further results |
| --- | --- | --- | --- | --- | --- | --- | --- | --- | --- | --- | --- | --- | --- | --- | --- | --- | --- | --- | --- | --- | --- |
| O=C(c1ccccc1)c1cn(S(=O)(=O)CCl)nc1-c1cc(Cl)cc(Cl)c1 [Compound 1] | 50 | 75 | 75 | 0 | 0 | 0 | 0 | 0 | 35 | 40 | 50 | 35 | 50 | 0 | 35 | 50 | 75 | 0 | 0 | 0 | Kochia plant response rating (kochia (Kochia scoparia); 250 g ai/ha): 50; Kochia plant response rating (kochia (Kochia scoparia); 500 g ai/ha): 98; Cocklebur plant response rating ([5]; 500 g ai/ha): 0; Crabgrass, Large plant response rating ([6]; 31 g ai/ha): 0; Crabgrass, Large plant response rating ([6]; 62 g ai/ha): 0; Crabgrass, Large plant response rating ([6]; 125 g ai/ha): 0; Crabgrass, Large plant response rating ([6]; 250 g ai/ha): 0; Crabgrass, Large plant response rating ([6]; 500 g ai/ha): 0; Plant response rating, Smartweed ([7]; Postemergence, 500 g ai/ha): 85; Smartweed plant response rating ([7]; 31 g ai/ha): 0; Smartweed plant response rating ([7]; 125 g ai/ha): 98; Smartweed plant response rating ([7]; 250 g ai/ha): 98; Smartweed plant response rating ([7]; 500 g ai/ha): 98 |
| O=C(c1ccccc1)c1cn(S(=O)(=O)C(F)(F)F)nc1-c1cc(Cl)cc(Cl)c1 [Compound 2] | 0 | 100 | 100 | 0 | 0 | 0 | 0 | 0 | 0 | 0 | 0 | 0 | 100 | 0 | 65 | 75 | 95 | 0 | 0 | 0 | Ragweed plant response rating ([1]; 125 g ai/ha): 0; Kochia plant response rating (kochia (Kochia scoparia); 250 g ai/ha): 65; Kochia plant response rating (kochia (Kochia scoparia); 500 g ai/ha): 90; Cocklebur plant response rating ([5]; 31 g ai/ha): 0; Cocklebur plant response rating ([5]; 62 g ai/ha): 0; Cocklebur plant response rating ([5]; 125 g ai/ha): 0; Cocklebur plant response rating ([5]; 250 g ai/ha): 0; Crabgrass, Large plant response rating ([6]; 31 g ai/ha): 0; Crabgrass, Large plant response rating ([6]; 62 g ai/ha): 0; Crabgrass, Large plant response rating ([6]; 125 g ai/ha): 0; Crabgrass, Large plant response rating ([6]; 250 g ai/ha): 0; Crabgrass, Large plant response rating ([6]; 500 g ai/ha): 0; Smartweed plant response rating ([7]; 31 g ai/ha): 0; Smartweed plant response rating ([7]; 125 g ai/ha): 0; Smartweed plant response rating ([7]; 250 g ai/ha): 0 |
